According to patent US20260217688A1, “INHIBITORS OF JAK2” (Llydaw Therapeutics, Inc., priority 2022, published 2026):

Key:
[1] = target: T1, JAK2 JH2 (Homo sapiens, UniProt O60674); assay: JAK2 JH2 TR-FRET Assay; assay type: binding; details: JAK2 JH2 1 nM, Tracer ZE84-0003 10 nM
T1 construct: Enzyme: JAK2 JH2, His-Avi-Tag, Biotin-Labeled (BPS Bioscience, Cat #79074) 1 nM; His; purchased BPS Bioscience 79074
Method: Assay Buffer 1×: • 20 mM HEPES pH 7.2-7.4; • 10 mM MgCl2; • 0.015% Brij-35; • 2 mM DTT; • 0.05 mg/ml BSA.
Final assay concentrations: • DMSO: 0.25%; • Streptavidin Tb-cryptate (Cisbio, Cat #610SATLB) 0.2 nM; • Enzyme: JAK2 JH2, His-Avi-Tag, Biotin-Labeled (BPS Bioscience, Cat #79074) 1 nM; • Probe: Tracer ZE84-0003 (ChemRar) 10 nM.
Materials: • Reaction plate: ProxiPlate-384 Plus White Plate (PerkinElmer); • Dilution plate: Diamond Well Plate (Axygen, Cat #P-384-120 SQ-C-S); • Compounds plate: Diamond Well Plate (Axygen, Cat #P-384-120 SQ-C-S).
Assay protocol: • 1. Prepare 400× solutions of compounds in DMSO into Compounds plate; • 2. Prepare Dilution plate: add 39 μL of 1× Assay buffer per well of Dilution plate; • 3. Prepare 2×Tb-cryptate mix in 1× Assay buffer. Add 10 μL of 2×Tb-cryptate mix to K-(Tb-cryptate and Probe without Enzyme) wells and blank (Tb-cryptate without Probe and Enzyme) wells; • 4. Add JAK2 JH2 into the rest of 2×Tb-cryptate mix to make 2×JAK2 JH2+Tb-cryptate mix. Add 10 μL per well into Reaction plate; • 5. Centrifuge plate at 200 g for 1 min; • 6. Dilute 1 μL of 400× compounds in 39 μL 1× Assay buffer in Dilution plate; • 7. Add 2 μL of 10× compounds from Dilution plate to Reaction plate with 10 μL of JAK2 JH2+Tb-cryptate mix; • 8. Centrifuge plate at 200 g for 1 min; • 9. Pre-incubate Reaction plate with compounds 15 min; • 10. Prepare 2.5× Tracer mix; • 11. Add 8 μL of 2.5× Tracer mix into appropriate wells of Reaction plate; • 12. Centrifuge plate at 800 g for 3 min; • 13. Incubate at rt for 15 min; • 14. Measure Fluorescence using Microplate Reader (Ex: TR, Em1/Em2: 482/520). The results of this assay are shown in the Table B. The values of EC50 shown as a letters A-D, where: A≤0.01 μM; 0.01 μM<B≤0.05 μM; 0.05 μM<C≤0.1 μM; D>0.1.

[2] = system: Ba/F3 (JAK2 V617F) cells; assay: Proliferation inhibition assay (CellTiter-Glo), Ba/F3 JAK2 V617F; assay type: cell-based; details: Mus musculus, BaF3; without IL3, 72 h; read-out: Ba/F3 JAK2 V617F, CC50 3 days
Method: (§1) Ba/F3 (JAK2 wt) (ABM, T3076) cells and Ba/F3 (JAK2 V617F) (WuXi AppTec) cells were grown in RPMI-1640 (Gibco, cat. number 21870) supplemented with 10% FBS (Hyclone Laboratories Inc, Cat #SV30160.03), 1× Antibiotic-antimycotic (Gibco, Cat #15240-062), 2× Sodium pyruvate (Paneco, cat #F023), 2× Essential amino acids (Paneco, cat #F115/100), 1× Non-Essential amino acids (Paneco, cat #F116) at 37° C. in 5% CO2 atmosphere.
(§2) For the proliferation inhibition assay Ba/F3 (JAK2 wt) and Ba/F3 (JAK2 V617F) cells were seeded into a CellBIND® 384-well Flat Clear Bottom Black Polystyrene Microplates (Corning, USA, Cat #3770) at a density of 4000 cells per well in complete culture medium with or without 10 ng/ml rmIL-3 (RD systems, USA, Cat #403-ML-025) using Biomek FX/NX (384) liquid handler, 45 μl of cell suspension in complete culture medium per well. 500× compound's stocks in DMSO (Sigma Cat #D2650) were prepared in compounds plate (Diamond Well Plate, Axigen, Cat #P-384-120 SQ-C-S) applying Biomek 2000. 1 μl of 500× compounds stock was added to 49 μl of complete culture medium into Dilution plate (Diamond Well Plate, Axigen, Cat #P-384-120 SQ-C-S), mixed and then 5 μl of 10× compounds solution was transferred to cells using Biomek FX/NX (384) liquid handler. The centrifugation at 100 g for 1 min at Eppendorf 5810 followed. Final DMSO concentration in assay was 0.2%. All treatments were performed in technical and biological duplicates. Treated cells were incubated for 72 h at 37° C. with 5% CO2.
(§3) After 3 days of incubation, CellTiter-Glo Luminescent Cell Viability Assay (Promega) was performed. 10 μl of CellTiter-Glo (Promega, CAT #G7572) was added to the cells using Biomek FX/NX (384) liquid handler. The assay plate was centrifuged at 100 g for 1 min and luminescence signal was measured using Microplate Reader (CLARIOStar).

[3] = Proliferation inhibition assay (CellTiter-Glo), Ba/F3 JAK2 wt; assay type: cell-based; details: mouse, Ba/F3 (JAK2 wt) cells, with 10 ng/ml rmIL-3, 72 h; read-out: Ba/F3 JAK2 wt + IL3, CC50 3 days
Method: as §1, §2, §3

T1 sequence (O60674 545-809 limits assumed): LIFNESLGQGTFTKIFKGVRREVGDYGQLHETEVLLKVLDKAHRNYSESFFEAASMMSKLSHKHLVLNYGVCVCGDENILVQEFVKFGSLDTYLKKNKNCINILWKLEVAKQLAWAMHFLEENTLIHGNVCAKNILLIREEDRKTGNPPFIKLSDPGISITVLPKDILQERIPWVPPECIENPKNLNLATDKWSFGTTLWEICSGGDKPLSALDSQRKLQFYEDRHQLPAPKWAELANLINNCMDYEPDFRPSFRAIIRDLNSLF

Structure (SMILES) | EC50 [1] | CC50 [2] | CC50 at 72 h [3]
COc1c(Nc2nc(Nc3cnn(CCN(C)C)c3)ncc2C(N)=O)cccc1-c1ncn(C)n1 [Compound 5, 2-((1-(2-(dimethylamino)ethyl)-1H-pyrazol-4-yl)amino)-4-((2-methoxy-3-(1-methyl-1H-1,2,4-triazol-3-yl)phenyl)amino)pyrimidine-5-carboxamide] | 10 to 50 nM | – | –
COc1c(Nc2nc(Nc3cn(C)nc3C)ncc2C(N)=O)cccc1-c1ncn(C)n1 [Compound 13, 2-[(1,3-dimethylpyrazol-4-yl)amino]-4-[2-methoxy-3-(1-methyl-1,2,4-triazol-3-yl)anilino]pyrimidine-5-carboxamide] | > 100 nM | – | –
CCCn1nc(C)c(Nc2ncc(C(N)=O)c(Nc3cccc(-c4ncn(C)n4)c3OC)n2)c1C [Compound 19, 2-[(3,5-dimethyl-1-propyl-pyrazol-4-yl)amino]-4-[2-methoxy-3-(1-methyl-1,2,4-triazol-3-yl)anilino]pyrimidine-5-carboxamide] | > 100 nM | – | –
COc1c(Nc2nc(Nc3c(C)nn(C(C)C)c3C)ncc2C(N)=O)cccc1-c1ncn(C)n1 [Compound 20, 2-[(1-isopropyl-3,5-dimethyl-pyrazol-4-yl)amino]-4-[2-methoxy-3-(1-methyl-1,2,4-triazol-3-yl)anilino]pyrimidine-5-carboxamide] | > 100 nM | – | –
COc1c(Nc2nc(Nc3cnn(CC45CC6CC(CC(C6)C4)C5)c3)ncc2C(N)=O)cccc1-c1ncn(C)n1 [Compound 23, 2-[[1-(1-adamantylmethyl)pyrazol-4-yl]amino]-4-[2-methoxy-3-(1-methyl-1,2,4-triazol-3-yl)anilino]pyrimidine-5-carboxamide] | > 100 nM | – | –
CCCCCCCCn1cc(Nc2ncc(C(N)=O)c(Nc3cccc(-c4ncn(C)n4)c3OC)n2)cn1 [Compound 25, 4-[2-methoxy-3-(1-methyl-1,2,4-triazol-3-yl)anilino]-2-[(1-octylpyrazol-4-yl)amino]pyrimidine-5-carboxamide] | > 100 nM | – | –
COc1c(Nc2nc(Nc3cnn(CCC4CCCCN4C)c3)ncc2C(N)=O)cccc1-c1ncn(C)n1 (stereo not drawn) [Compound 27, 4-[2-methoxy-3-(1-methyl-1,2,4-triazol-3-yl)anilino]-2-[[1-[2-(1-methyl-2-piperidyl)ethyl]pyrazol-4-yl]amino]pyrimidine-5-carboxamide] | > 100 nM | – | –
COc1c(Nc2nc(Nc3cnn(C(C)C)c3)ncc2C(=O)N(C)C)cccc1-c1ncn(C)n1 [Compound 31, 2-[(1-Isopropyl-1H-pyrazol-4-yl)amino]-4-{[2-methoxy-3-(1-methyl-1H-1,2,4-triazol-3-yl)phenyl]amino}-N,N-dimethylpyrimidine-5-carboxamide] | > 100 nM | – | –
COc1c(Nc2nc(Nc3cnn(C4CCN(C)CC4)c3)ncc2C(N)=O)cccc1-c1nc2ccccc2o1 [Compound 32, 4-[3-(1,3-benzoxazol-2-yl)-2-methoxy-anilino]-2-[[1-(1-methyl-4-piperidyl)pyrazol-4-yl]amino]pyrimidine-5-carboxamide] | 10 to 50 nM | 500 to 1000 nM | 1 to 5 µM
COc1c(Nc2nc(Nc3cnn(C4CCN(C(C)C)CC4)c3)ncc2C(N)=O)cccc1-c1nc2ccccc2o1 [Compound 33, 4-[3-(1,3-benzoxazol-2-yl)-2-methoxy-anilino]-2-[[1-(1-isopropyl-4-piperidyl)pyrazol-4-yl]amino]pyrimidine-5-carboxamide] | 10 to 50 nM | ≤ 500 nM | 1 to 5 µM
COc1c(Nc2nc(Nc3cnn(CCN(CC(C)C)CC(C)C)c3)ncc2C(N)=O)cccc1-c1nc2ccccc2o1 [Compound 34] | > 100 nM | 1000 to 5000 nM | 5 to 10 µM
COc1c(Nc2nc(Nc3cnn(C4CCN(C(C)C)CC4)c3)ncc2C(N)=O)cccc1-c1ncn(C)n1 [Compound 35, 2-[[1-(1-isopropyl-4-piperidyl)pyrazol-4-yl]amino]-4-[2-methoxy-3-(1-methyl-1,2,4-triazol-3-yl)anilino]pyrimidine-5-carboxamide] | 10 to 50 nM | 1000 to 5000 nM | > 10 µM
COc1c(Nc2nc(Nc3cnn(C)c3)ncc2C(N)=O)cccc1-c1cccnc1 [Compound 36, 4-[2-methoxy-3-(3-pyridyl)anilino]-2-[(1-methylpyrazol-4-yl)amino]pyrimidine-5-carboxamide] | 10 to 50 nM | > 10000 nM | > 10 µM
COc1c(Nc2nc(Nc3cnn(C)c3)ncc2C(N)=O)cccc1-c1ccncc1 [Compound 37, 4-[2-methoxy-3-(4-pyridyl)anilino]-2-[(1-methylpyrazol-4-yl)amino]pyrimidine-5-carboxamide] | 10 to 50 nM | 5000 to 10000 nM | 5 to 10 µM
COc1c(Nc2nc(Nc3cnn(C(C)C)c3)ncc2C(N)=O)cccc1-c1ccccn1 [Compound 38, 2-[(1-isopropylpyrazol-4-yl)amino]-4-[2-methoxy-3-(2-pyridyl)anilino]pyrimidine-5-carboxamide] | 10 to 50 nM | ≤ 500 nM | 5 to 10 µM
COc1c(Nc2nc(Nc3cnn(C4CCCCC4)c3)ncc2C(N)=O)cccc1-c1ccccn1 [Compound 39, 2-[(1-cyclohexylpyrazol-4-yl)amino]-4-[2-methoxy-3-(2-pyridyl)anilino]pyrimidine-5-carboxamide] | 50 to 100 nM | ≤ 500 nM | 5 to 10 µM
COc1c(Nc2nc(Nc3cnn(C4CCOCC4)c3)ncc2C(N)=O)cccc1-c1ccccn1 [Compound 40, 4-[2-methoxy-3-(2-pyridyl)anilino]-2-[(1-tetrahydropyran-4-ylpyrazol-4-yl)amino]pyrimidine-5-carboxamide] | 10 to 50 nM | ≤ 500 nM | 5 to 10 µM
COc1c(Nc2nc(Nc3cnn(C45CC6CC(CC(C6)C4)C5)c3)ncc2C(N)=O)cccc1-c1ccccn1 [Compound 41, 2-[[1-(1-adamantyl)pyrazol-4-yl]amino]-4-[2-methoxy-3-(2-pyridyl)anilino]pyrimidine-5-carboxamide] | > 100 nM | 1000 to 5000 nM | 5 to 10 µM
COc1c(Nc2nc(Nc3cnn(CC(C)C)c3)ncc2C(N)=O)cccc1-c1ncn(C)n1 [Compound 58, 2-[(1-isobutylpyrazol-4-yl)amino]-4-[2-methoxy-3-(1-methyl-1,2,4-triazol-3-yl)anilino]pyrimidine-5-carboxamide] | – | 500 to 1000 nM | 1 to 5 µM
COc1c(Nc2nc(Nc3cnn(CC(F)(F)F)c3)ncc2C(N)=O)cccc1-c1ncn(C)n1 [Compound 59] | – | 1000 to 5000 nM | 5 to 10 µM
